We go through 16 compounds from PubChem BioAssay (NCI).

The structures appear in SMILES notation. Values joined by “and” are separate entries in the source; they are usually repeats but may differ in a detail not shown here. Equal values may be shown once.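 Five compound concentrations were applied to cells in 96-well plates for 48 hours; endpoints were derived by simple linear interpolation of the resulting dose-response curve. At the GI50, growth is halved. TGI marks complete inhibition of growth.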

The first test concerns ACHN renal. As to the kind of experiment: NCI tumour cell line growth inhibition, 48 h.
For `NC(CSC1c2ccccc2-c2ccccc21)C(=O)O` (configuration not stated), the TGI was greater than 100 µM.
Take `O=C1c2c(c3c4ccccc4[nH]c3c3ccc4ccccc4c23)C(=O)N1CCN1CCNCC1`: the GI50 was 1.56 µM and the TGI came out at 2.9 µM.
Take `Cc1cc(S(=O)(=O)/N=C(/N)Nc2ccccc2O)c(SCc2ccccc2)cc1Cl`: the GI50 is 13 µM and the TGI came out at 27.4 µM.
In the case of `O=C1CCC(N2Cc3cc(CNC(=O)C(F)(F)c4ccc(Cl)cc4)ccc3C2=O)C(=O)N1` (configuration not stated), the GI50 was greater than 100 µM and the TGI was greater than 100 µM.
As for `O=C(O)CN1CCN(CC(=O)O)CC(=O)[O][Hg][O]C(=O)C1`, the GI50 is 19.6 µM and the TGI amounted to 34.2 µM.
The like results for `CCOC(=O)C1=C(C)N(c2ccc(Cl)cc2)[C@]2(C#N)C(O)=C(Cl)C(Cl)=C(O)[C@]12C#N` were, in that order, 31.6 µM and greater than 100 µM.
As for `O=C(OCc1ccc2ccccc2n1)c1cn(C2CC2)c2cc(N3CCN(Cc4ccc5ccccc5n4)CC3)c(F)cc2c1=O`, the GI50 is greater than 72.4 µM and the TGI was greater than 100 µM.
The compound `O=C(O)c1ccc(C(=O)c2ccccc2)c(C(=O)O)c1` yielded a TGI greater than 100 µM.

Another test concerns CAKI-1 renal. As to the kind of experiment: NCI tumour cell line growth inhibition, 48 h.
`O=C1NC(=O)C(N2C(=O)c3ccccc3C2=O)CC1O` (configuration not stated): the GI50 is greater than 100 µM and the TGI is greater than 100 µM.
For the compound `COc1ccc2c(c1)N(CCO)C1=C(C(=O)OC1)C2c1cccc(F)c1` (configuration not stated), the GI50 is 0.393 µM and the TGI is greater than 50 µM.
The like results for `C/C(=C\c1ccc2ccccc2c1)[N+](=O)[O-]` were, in that order, 1.92 µM and 4.05 µM.
With `C=CC(=O)Nc1cccc(Oc2nc(Nc3ccc(N4CCN(C)CC4)cc3)nc3ccsc23)c1`, the GI50 was 1.99 µM and the TGI is greater than 10 µM.
The like results for `OCc1ccc(N2CCCC2c2ccccc2)cc1Cl` (configuration not stated) were, in that order, 2.83 µM and 17.4 µM.
Consider `COC1C=COC2(C)Oc3c(C)c(O)c4c(c3C2=O)/C(=N/C2CCC(O)OC2C)C=C(NC(=O)/C(C)=C\C(=O)C2CC2C(O)C(C)C(O)C(C)C(OC(C)=O)C1C)C4=O` (configuration not stated), for which the TGI is 9.92 µM.
Regarding `CC(=O)/C=C/c1cn(C(=O)OC(C)(C)C)c2ccc(Br)cc12`, the GI50 is 22.1 µM and the TGI came out at 42.5 µM.
The like results for `CCOc1ccccc1C(=O)N1CCN(c2cc(Cl)cc(Cl)c2)CC1` were, in that order, 0.0257 µM and 12.5 µM.
`NC(CSC1c2ccccc2-c2ccccc21)C(=O)O` (configuration not stated) came in with a TGI greater than 100 µM.
Regarding `O=C1c2c(c3c4ccccc4[nH]c3c3ccc4ccccc4c23)C(=O)N1CCN1CCNCC1`, the GI50 was 1.37 µM and the TGI was 2.69 µM.
The like results for `Cc1cc(S(=O)(=O)/N=C(/N)Nc2ccccc2O)c(SCc2ccccc2)cc1Cl` were, in that order, 13.5 µM and 32.3 µM.
The like results for `O=C1CCC(N2Cc3cc(CNC(=O)C(F)(F)c4ccc(Cl)cc4)ccc3C2=O)C(=O)N1` (configuration not stated) were, in that order, 40.5 µM and greater than 100 µM.
On to `O=C(O)CN1CCN(CC(=O)O)CC(=O)[O][Hg][O]C(=O)C1`, for which the GI50 is 21.5 µM and the TGI worked out at 36.4 µM.
The like results for `CCOC(=O)C1=C(C)N(c2ccc(Cl)cc2)[C@]2(C#N)C(O)=C(Cl)C(Cl)=C(O)[C@]12C#N` were, in that order, 38 µM and greater than 100 µM.
The like results for `O=C(OCc1ccc2ccccc2n1)c1cn(C2CC2)c2cc(N3CCN(Cc4ccc5ccccc5n4)CC3)c(F)cc2c1=O` were, in that order, 55.7 µM and greater than 100 µM.
`O=C(O)c1ccc(C(=O)c2ccccc2)c(C(=O)O)c1` displayed a TGI greater than 100 µM.

For another test, the system named is K-562 leukemia. The test can be described thus: NCI tumour cell line growth inhibition, 48 h.
Consider `O=C1NC(=O)C(N2C(=O)c3ccccc3C2=O)CC1O` (configuration not stated), for which the GI50 is greater than 100 µM and the TGI is greater than 100 µM.
As for `COc1ccc2c(c1)N(CCO)C1=C(C(=O)OC1)C2c1cccc(F)c1` (configuration not stated), the GI50 is 0.199 µM and the TGI was greater than 50 µM.
For `C/C(=C\c1ccc2ccccc2c1)[N+](=O)[O-]`, the GI50 is 2.23 µM and the TGI worked out at 7.99 µM.
As for `C=CC(=O)Nc1cccc(Oc2nc(Nc3ccc(N4CCN(C)CC4)cc3)nc3ccsc23)c1`, the GI50 is 2.03 µM and 2.15 µM; the TGI was 4.97 µM and 4.87 µM.
`OCc1ccc(N2CCCC2c2ccccc2)cc1Cl` (configuration not stated): the GI50 is 2.33 µM and the TGI amounted to 10.6 µM.
Compound `COC1C=COC2(C)Oc3c(C)c(O)c4c(c3C2=O)/C(=N/C2CCC(O)OC2C)C=C(NC(=O)/C(C)=C\C(=O)C2CC2C(O)C(C)C(O)C(C)C(OC(C)=O)C1C)C4=O` (configuration not stated) came in with a TGI of 6.3 µM.
Turning to `CC(=O)/C=C/c1cn(C(=O)OC(C)(C)C)c2ccc(Br)cc12`, the GI50 was 18 µM and the TGI is greater than 54 µM.
The like results for `CCOc1ccccc1C(=O)N1CCN(c2cc(Cl)cc(Cl)c2)CC1` were, in that order, 0.0286 µM and 25.8 µM.
Regarding `NC(CSC1c2ccccc2-c2ccccc21)C(=O)O` (configuration not stated), the TGI was greater than 100 µM.
On to `O=C1c2c(c3c4ccccc4[nH]c3c3ccc4ccccc4c23)C(=O)N1CCN1CCNCC1`, for which the GI50 was 1.44 µM and the TGI came out at 3.09 µM.
`Cc1cc(S(=O)(=O)/N=C(/N)Nc2ccccc2O)c(SCc2ccccc2)cc1Cl`: the GI50 is 10.2 µM and the TGI was greater than 100 µM.
Turning to `O=C1CCC(N2Cc3cc(CNC(=O)C(F)(F)c4ccc(Cl)cc4)ccc3C2=O)C(=O)N1` (configuration not stated), the GI50 is greater than 96.3 µM and the TGI is greater than 100 µM.
The like results for `O=C(O)CN1CCN(CC(=O)O)CC(=O)[O][Hg][O]C(=O)C1` were, in that order, 17.9 µM and 44.6 µM.
The like results for `CCOC(=O)C1=C(C)N(c2ccc(Cl)cc2)[C@]2(C#N)C(O)=C(Cl)C(Cl)=C(O)[C@]12C#N` were, in that order, 21.5 µM and greater than 100 µM.
Regarding `O=C(OCc1ccc2ccccc2n1)c1cn(C2CC2)c2cc(N3CCN(Cc4ccc5ccccc5n4)CC3)c(F)cc2c1=O`, the GI50 was greater than 53.5 µM and the TGI is greater than 100 µM.
On to `O=C(O)c1ccc(C(=O)c2ccccc2)c(C(=O)O)c1`, for which the TGI is greater than 100 µM.
